{"source": "patent US9289503B2", "about": "“Fatty acid fumarate derivatives and their uses” (Catabasis Pharmaceuticals, Inc., priority 2010, dated 2016)", "format_in_all_cases": "cell-based", "key": {"[1]": {"tested_on": "IL-1β", "test": "IL-1β gene expression in LPS-stimulated RAW264.7 macrophages", "method": "RAW264.7 macrophages were seeded at a density of 100,000 cells/well in a 96-well plate in DMEM supplemented with 10% FBS and Penn/strep. 16 hours later, medium was aspirated and replaced with 90 μl/well of serum-free DMEM. A fatty acid fumarate conjugate, DHA and monomethyl-fumarate (MMF) were brought up in 100% EtOH to a concentration of 100 mM and then diluted 1:100 in 100% FBS for a stock solution consisting of 1 mM compound and 1% EtOH. these stock solutions were then diluted 1:10 in FBS supplemented with 1% EtOH to generate a 100 μM of a fatty acid fumarate conjugate and 100 μM each of DHA and MMF. 10 μl was then added to the RAW246.7 cells to generate final concentrations 10 μM of the fatty acid fumarate conjugate or 10 μM each DHA and MMF, along with vehicle only control. […] IL-1β and TNF-α transcript levels were then measured using Taqman primer/probe assay sets (Applied Biosystems), normalized to GAPDH using the deltaCt method, and the data expressed relative to vehicle only control. […]\nRAW264.7 macrophages are seeded at a density of 100,000 cells/well in a 96-well plate in DMEM supplemented with 10% FBS and Penn/strep. […] Transcript levels are then measured using ABI Taqman primer/probe assay kits, normalized to GAPDH using the deltaCt method, and the data expressed relative to vehicle only control."}, "[2]": {"tested_on": "Hmox1", "test": "Hmox1 target gene expression in RAW264.7 macrophages", "method": "RAW264.7 macrophages are seeded at a density of 100,000 cells/well in a 96-well plate in DMEM supplemented with 10% FBS and Penn/strep. 16 hours later, medium is aspirated and replaced with 90 μl/well of serum-free DMEM. A fatty acid fumarate conjugate, DHA and EPA are brought up in 100% EtOH to a concentration of 100 mM and then diluted 1:100 In 100% FBS for a 20× stock solution consisting of 1 mM compound and 1% EtOH. The fatty acid fumarate conjugate 20× stock solutions are diluted 1:2 in FBS supplemented with 1% EtOH for a 500 uM 10× stock solution, whereas equal volumes of the DHA and EPA 20× stock solutions are mixed to create a 10× stock solution containing 500 μm each of DHA and EPA. […] The compounds are allowed to pre-incubate for 2 hours before stimulation of 100 ng/ml LPS (10 μl of 1 μg/ml LPS is added to each well). Following 3 hours of LPS stimulation, cells are washed once in 1× PBS, aspirated dry, and flash frozen in liquid nitrogen. RNA is then isolated and converted to cDNA using the Cells to cDNA kit (Ambion) according to the manufacturer's protocol. Transcript levels are then measured using ABI Taqman primer/probe assay kits, normalized to GAPDH using the deltaCt method, and the data expressed relative to vehicle only control."}, "[3]": {"tested_on": "NF-κB", "test": "NF-κB luciferase reporter assay in RAW 264.7 macrophages", "settings": "RAW 264.7 cells with 3× NFκB response element luciferase reporter, 2 hour pretreatment, 200 ng/ml LPS for 3 hours; for pIC50: Mus musculus, RAW264.7, read-out: NF-kB inhibitory activity", "method": "RAW 264.7 cells stably expressing a 3× NFκB response elemement-drive luciferase reporter were seeded into 96 well plates in sera-free medium (Optimem) 18 hours prior to compound application. Compounds of the invention were prepared by first making […] stock solutions in EtOH. Stock solutions were then diluted 1:100 in low LPS FBS (Gemini BenchMark 100-106), mixed vigorously and allowed to incubate at room temperature for 30 minutes, 1:2 serial dilutions were then made in FBS supplemented with 1% EtOH, mixed vigorously, and again allowed to incubate at room temperature for 30 minutes before adding to RAW 264.7 reporter cells (final concentrations: 10% FBS, 100 uM highest compound dilution, 0.1% EtOH) for a 2 hour pretreatment prior to stimulation with LPS. Cells were then stimulated with 200 ng/ml LPS or vehicle control for 3 hours in the presence of the compounds of the invention. A set of six vehicles was left unstimulated with LPS in order to measure the assay floor. AlamarBlue viability dye (Invitrogen) was added to cells simultaneously with the delivery of LPS (final AlamarBlue concentration of 10%). After the 3 h incubation period with LPS, cell viability was measured by reading fluorescence (excitation 550 nm, emission 595 nm) with a Perkin Elmer Victor V plate reader. Then cell media was aspirated from each well. Luciferase signal was then developed by addition of the Britelite Plus reagent (Perkin Elmer). Luciferase activity was measured with the Perkin Elmer Victor V plate reader. NF-κB activity was expressed as a percent of the vehicle control wells (stimulated with LPS). Compounds were tested at 6 dose point titrations in triplicate to determine IC50 values.\nTable 1 summarizes the IC50 values for a number of fatty acid fumarate conjugates in this NF-κB luciferase reporter assay. In this table, MMF=mono methyl fumarate."}, "[4]": {"tested_on": "TNF-α", "test": "TNF-α gene expression in LPS-stimulated RAW264.7 macrophages", "settings": "10 μM; 2 hours pre-incubation, 100 ng/ml LPS 3 hours; compared with 10 μM each DHA and MMF; FIG. 1", "method": "RAW264.7 macrophages were seeded at a density of 100,000 cells/well in a 96-well plate in DMEM supplemented with 10% FBS and Penn/strep. 16 hours later, medium was aspirated and replaced with 90 μl/well of serum-free DMEM. A fatty acid fumarate conjugate, DHA and monomethyl-fumarate (MMF) were brought up in 100% EtOH to a concentration of 100 mM and then diluted 1:100 in 100% FBS for a stock solution consisting of 1 mM compound and 1% EtOH. these stock solutions were then diluted 1:10 in FBS supplemented with 1% EtOH to generate a 100 μM of a fatty acid fumarate conjugate and 100 μM each of DHA and MMF. 10 μl was then added to the RAW246.7 cells to generate final concentrations 10 μM of the fatty acid fumarate conjugate or 10 μM each DHA and MMF, along with vehicle only control. The compounds were allowed to pre-incubate for 2 hours before stimulation of 100 ng/ml LPS (10 μl of 1 μg/ml LPS was added to each well). Following 3 hours of LPS stimulation, cells were washed once in 1× PBS, aspirated dry, and flash frozen in liquid nitrogen. RNA was then isolated and converted to cDNA using the Cells to cDNA kit (Ambion) according to the manufacturer's protocol. IL-1β and TNF-α transcript levels were then measured using Taqman primer/probe assay sets (Applied Biosystems), normalized to GAPDH using the deltaCt method, and the data expressed relative to vehicle only control. […]"}, "[5]": {"settings": "RAW264.7, 50 μM and 100 μM, FIG. 4"}}, "note": "pIC50: −log10 of the molar value. Where a name gives a salt, the structure may show the parent alone."}
{"smiles": "COC(=O)/C=C/C(=O)NCCNC(=O)CCCC[C@@H]1CCSS1", "note": "[Compound I-105, (R,E)-methyl 4-(2-(5-(1,2-dithiolan-3-yl)pentanamido)ethylamino)-4-oxobut-2-enoate]", "values": [{"measurement": "effect on IL-1β target gene expression", "setting": "[1]; [5]", "value": "positive effect"}, {"measurement": "effect on the target gene Hmox1", "setting": "[2]; [5]", "value": "positive effect"}]}
{"smiles": "COC(=O)/C=C/C(=O)O", "note": "[MMF, mono methyl fumarate, reference compound]", "values": [{"measurement": "pIC50", "setting": "[3]", "value": "≤ 4.00"}]}
{"smiles": "CC/C=C\\C/C=C\\C/C=C\\C/C=C\\C/C=C\\C/C=C\\CCC(=O)NCCCC[C@H](NC(=O)/C=C/C(=O)OC)C(=O)OC", "note": "[Compound I-6, (S)-methyl 6-((4Z,7Z,10Z,13Z,16Z,19Z)-docosa-4,7,10,13,16,19-hexaneamido)-2-((E)-4-methoxy-4-oxobut-2-enamido)hexanoate]", "values": [{"measurement": "NF-kB inhibitory activity", "setting": "[3]", "value": "+ +"}]}
{"smiles": "CC/C=C\\C/C=C\\C/C=C\\C/C=C\\C/C=C\\C/C=C\\CCC(=O)NCCSSCCNC(=O)/C=C/C(=O)OC", "note": "[Compound I-5, (E)-methyl 4-(2-(2-(2-(4Z,7Z,10Z,13Z,16Z,19Z)-docosa-4,7,10,13,16,19-hexaenamidoethyl)disulfanyl)ethylamino)-4-oxobut-2-enoate]", "values": [{"measurement": "pIC50", "setting": "[3]", "value": "3.70 to 4.30"}]}
{"smiles": "CC/C=C\\C/C=C\\C/C=C\\C/C=C\\C/C=C\\C/C=C\\CCC(=O)NCCNC(=O)/C=C/C(=O)OC", "note": "[Compound I-1, (E)-methyl 4-(2-(4Z,7Z,10Z,13Z,16Z,19Z)-docosa-4,7,10,13,16,19-hexaenamidoethylamino)-4-oxobut-2-enoate]", "values": [{"measurement": "IL-1β gene expression", "setting": "[1]; 10 μM, 2 hours pre-incubation, 100 ng/ml LPS 3 hours, compared with 10 μM each DHA and MMF, FIG. 1", "value": "greater reduction"}, {"measurement": "TNF-α gene expression", "setting": "[4]", "value": "greater reduction"}, {"measurement": "effect on the target gene Hmox1", "setting": "[2]; RAW264.7, 2 hours pre-incubation, 100 ng/ml LPS 3 hours, FIG. 3", "value": "positive effect"}]}
